Our source for the TGI values is PubChem BioAssay (NCI).

Structures are written as SMILES.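 A five-concentration, 48-hour dose response in 96-well plates underlies each endpoint, interpolated linearly between surrounding concentrations. Definition used: TGI = concentration required for complete inhibition of growth.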 Where a SMILES comes first, the peptide text is derived from it. The star is where a group is joined. Boc = CC(C)(C)OC(=O)* Where only a bound is given, the exact number is not on record here.

Among the test systems are SF-268 CNS; RXF 393 renal; IGROV1 ovarian; SF-295 CNS; 786-0 renal; SK-OV-3 ovarian; OVCAR-3 ovarian; HCC-2998 colon; MDA-N; SNB-75 CNS; MDA-MB-435.
Assay in all cases: growth of human tumour cells (NCI), 48 h

In the case of `Cc1ccc([N+](=O)[O-])cc1S(=O)(=O)Nc1ccc(C2=NOC(c3ccccc3)C2)cc1` (stereo not given), the TGI in the assay with SF-268 CNS was greater than 100 µM; in the assay on RXF 393 renal it was 9.44 µM; with IGROV1 ovarian, greater than 100 µM; in the assay on SF-295 CNS, 19.7 µM; in the assay with 786-0 renal, 35.6 µM; with SK-OV-3 ovarian, 56.5 µM. In addition, the TGI in the assay on OVCAR-3 ovarian worked out at 10.5 µM; in the assay with HCC-2998 colon, 25.8 µM; with MDA-N it was 6.38 µM; in the assay with SNB-75 CNS, 70.3 µM.

For `N#Cc1cccc(Nc2ccccc2SSc2ccccc2Nc2cccc(C#N)c2)c1`, the TGI in the assay with SF-268 CNS was greater than 21.5 µM; with IGROV1 ovarian, 16.9 µM; in the assay with SF-295 CNS, greater than 21.5 µM; in the assay on 786-0 renal, 12 µM; with SK-OV-3 ovarian it was greater than 21.5 µM; in the assay on OVCAR-3 ovarian, greater than 21.5 µM. Also, the TGI with HCC-2998 colon is greater than 21.5 µM; in the assay on MDA-MB-435, 18.2 µM; in the assay with SNB-75 CNS it was greater than 21.5 µM.

As for `CC(=O)N1c2ccccc2C2=NN=C(N(C)C)SC21` (stereo not given), the TGI was found to be 16 µM in the assay with SF-268 CNS; 8.16 µM in the assay with SF-295 CNS; 12.5 µM in the assay with 786-0 renal; 9.46 µM in the assay with OVCAR-3 ovarian; 12.5 µM in the assay with HCC-2998 colon; 31.3 µM in the assay with MDA-MB-435. Further, the TGI with MDA-N was determined as 19.7 µM; in the assay on SNB-75 CNS, 26.4 µM.

In the case of `COC1/C=C/C(C)C(C(C)C(OC)C(C)CCC(=O)C(C)C(CC(=O)O)OC)OC(=O)/C=C/C=C(\C)CC(OC)C(OC)C2=CC(=O)O[C@@H](C(C)C(OC)CC(OC)/C=C/C(C)C(O)C1)[C@H]2O` (stereo not given in full), the TGI is 0.157 µM with SF-268 CNS; 0.0297 µM in the assay on IGROV1 ovarian; 0.261 µM in the assay with SF-295 CNS; 0.12 µM in the assay on 786-0 renal; 0.289 µM with SK-OV-3 ovarian; greater than 1.07 µM with OVCAR-3 ovarian. Moreover, the TGI was greater than 1.07 µM in the assay with HCC-2998 colon, 1.02 µM in the assay on MDA-MB-435, greater than 1.07 µM in the assay on MDA-N and 0.0982 µM in the assay with SNB-75 CNS.

`COc1cccc2c1C(=O)c1c(O)c3c(c(O)c1C2=O)CC(O)(C(C)=O)CC3OC1CC([N+](C)(C)C)C(O)C(C)O1` (stereo not given): the TGI with SF-268 CNS, in the assay on RXF 393 renal, in the assay on IGROV1 ovarian, in the assay with SF-295 CNS, in the assay with 786-0 renal and with SK-OV-3 ovarian was greater than 100 µM each time. For the same compound, the TGI in the assay on OVCAR-3 ovarian, with HCC-2998 colon and with SNB-75 CNS was greater than 100 µM throughout.

For `O=[N+]([O-])/C(C(Cl)=C(Cl)Cl)=C(\Nc1cccc2cccnc12)Sc1ccccc1`, the TGI is 42 µM in the assay on SF-268 CNS; 51.4 µM with SF-295 CNS; 49.7 µM in the assay with 786-0 renal; greater than 100 µM in the assay on SK-OV-3 ovarian; 28.3 µM in the assay on OVCAR-3 ovarian; greater than 100 µM with HCC-2998 colon. The TGI is 42.7 µM with MDA-MB-435, greater than 100 µM with MDA-N and 72.2 µM with SNB-75 CNS.

`CCOC(=O)CCN1C(=O)c2ccc(NC(=O)C(=O)O)cc2S1(=O)=O`: the TGI with IGROV1 ovarian, with SF-295 CNS, in the assay on 786-0 renal, with SK-OV-3 ovarian, in the assay on OVCAR-3 ovarian and in the assay with HCC-2998 colon was greater than 100 µM each time. Also, the TGI in the assay with MDA-MB-435, in the assay with MDA-N and with SNB-75 CNS was greater than 100 µM throughout.

`Cc1ccc(/C(O)=C/c2nc3ccccc3nc2NC23CC4CC(CC(C4)C2)C3)cc1`: the TGI in the assay with SF-268 CNS, in the assay with IGROV1 ovarian, with SF-295 CNS, in the assay with 786-0 renal, in the assay with SK-OV-3 ovarian and with OVCAR-3 ovarian was greater than 10 µM each time. For the same compound, the TGI in the assay on HCC-2998 colon, with MDA-MB-435, in the assay on MDA-N and with SNB-75 CNS was greater than 10 µM throughout.

`COc1cc(/C=C2\N=C(c3ccccc3)N(c3ccc(S(=O)(=O)Nc4nccs4)cc3)C2=O)ccc1O`: the TGI with SF-268 CNS, in the assay with RXF 393 renal, in the assay with IGROV1 ovarian, with SF-295 CNS, in the assay on 786-0 renal and in the assay on SK-OV-3 ovarian was greater than 100 µM throughout. The TGI in the assay with OVCAR-3 ovarian, in the assay with MDA-MB-435 and in the assay on SNB-75 CNS was greater than 100 µM each time.

As to `N/C(=N\Nc1cccc(Cl)c1)c1cccnc1`, the TGI with SF-268 CNS is greater than 100 µM; in the assay with RXF 393 renal it was greater than 80.3 µM; with IGROV1 ovarian it was greater than 100 µM; in the assay with SF-295 CNS it was greater than 100 µM; in the assay on 786-0 renal it was greater than 100 µM; in the assay with SK-OV-3 ovarian, greater than 100 µM. Moreover, the TGI in the assay with OVCAR-3 ovarian is greater than 86.3 µM; in the assay with HCC-2998 colon it was greater than 100 µM; with MDA-MB-435, greater than 30.1 µM; in the assay on SNB-75 CNS it was 99.7 µM.

`CC[N+](C)(C)c1ccc(C(=C2C=CC(=[N+](C)C)C=C2)c2ccc(N(C)C)cc2)cc1`: the TGI in the assay on SF-268 CNS is 32.4 µM; in the assay on RXF 393 renal, greater than 100 µM; in the assay on IGROV1 ovarian, 40.8 µM; with SF-295 CNS, 70.1 µM; with 786-0 renal, 29 µM; in the assay on SK-OV-3 ovarian, 55 µM. Further, the TGI in the assay with OVCAR-3 ovarian was 22.5 µM; with HCC-2998 colon, 32.3 µM; in the assay with SNB-75 CNS, 33.8 µM.

In the case of `CN1NC2=NCCN=C3NN(C)C(=NCCN=C1S2)S3`, the TGI in the assay on SF-268 CNS, in the assay with RXF 393 renal, in the assay with IGROV1 ovarian, with SF-295 CNS, in the assay on 786-0 renal and with SNB-75 CNS was greater than 100 µM throughout.

For the compound `CCOC(=O)Nn1cnnc1Cc1ccccc1`, the TGI with SF-268 CNS, in the assay on IGROV1 ovarian, in the assay on SF-295 CNS, with 786-0 renal, in the assay with SK-OV-3 ovarian and in the assay with OVCAR-3 ovarian was greater than 100 µM in each case. For the same compound, the TGI with HCC-2998 colon, in the assay on MDA-MB-435 and in the assay with MDA-N was greater than 100 µM in each case.

`COc1cc2c(cc1C)NC(=O)/C2=C\c1cccnc1`: the TGI in the assay on SF-268 CNS is 50 µM; in the assay with RXF 393 renal it was 43.1 µM; in the assay on SF-295 CNS, 35 µM; in the assay with 786-0 renal, greater than 100 µM; in the assay with SK-OV-3 ovarian, 43.9 µM; with OVCAR-3 ovarian, 33.6 µM. The TGI in the assay with HCC-2998 colon is 21.6 µM; with MDA-MB-435 it was 50.1 µM; in the assay on SNB-75 CNS, 50.2 µM.

As for `CCCCn1c(C)c(C)c2c1NN=C(C#N)S2(=O)=O`, the TGI with SF-268 CNS, with IGROV1 ovarian, with 786-0 renal, with SK-OV-3 ovarian, in the assay on OVCAR-3 ovarian and with HCC-2998 colon was greater than 100 µM each time. The TGI in the assay on MDA-MB-435 and with SNB-75 CNS was greater than 100 µM each time.

Take `CC12CC(=O)OC(Cc3ccccc31)O2` (stereo not given): the TGI with SF-268 CNS, in the assay with RXF 393 renal, with IGROV1 ovarian, in the assay with SF-295 CNS, in the assay on 786-0 renal and in the assay on SK-OV-3 ovarian was greater than 100 µM throughout. Besides, the TGI with OVCAR-3 ovarian, in the assay with HCC-2998 colon and in the assay with SNB-75 CNS was greater than 100 µM each time.

With `COC(=O)C(Cc1c[nH]c2ccccc12)NC(=O)C(Cc1c[nH]c2ccccc12)NC(=O)C(Cc1c[nH]c2ccccc12)NC(=O)C(Cc1c[nH]c2ccccc12)NC(=O)C(Cc1c[nH]c2ccccc12)NC(=O)OC(C)(C)C` (stereo not given) (Boc-WWWWW-OMe; configuration not given here), the TGI with SF-268 CNS, with IGROV1 ovarian, in the assay with 786-0 renal, in the assay with OVCAR-3 ovarian, in the assay on HCC-2998 colon and in the assay with MDA-MB-435 was greater than 100 µM each time. Besides, the TGI in the assay with MDA-N and with SNB-75 CNS was greater than 100 µM throughout.

Regarding `COc1ccc(OC)c2sc(N3C(=O)/C(=C/c4ccc(N(C)C)cc4)N=C3c3ccccc3)nc12`, the TGI in the assay on SF-268 CNS, with IGROV1 ovarian, in the assay on SF-295 CNS, in the assay on 786-0 renal, in the assay with SK-OV-3 ovarian and with OVCAR-3 ovarian was greater than 100 µM throughout. The TGI in the assay on HCC-2998 colon was greater than 100 µM; with MDA-MB-435, greater than 100 µM; with MDA-N it was 61.3 µM; with SNB-75 CNS, greater than 100 µM.

With `C=CCN1C(=O)/C(=C/c2ccccc2)N=C1SC/C=C/C`, the TGI with SF-268 CNS is greater than 100 µM; in the assay with RXF 393 renal it was 46.7 µM; in the assay with IGROV1 ovarian, greater than 100 µM; with SF-295 CNS, greater than 100 µM; in the assay with 786-0 renal, greater than 100 µM; with SK-OV-3 ovarian, greater than 100 µM. In addition, the TGI in the assay with OVCAR-3 ovarian was greater than 100 µM; with HCC-2998 colon it was 76.6 µM; with MDA-MB-435, greater than 100 µM; with SNB-75 CNS, greater than 100 µM.

Regarding `Cc1ccc(-n2nnc3c(NNc4ccccc4)n[nH]c(=O)c32)cc1`, the TGI in the assay on SF-295 CNS, in the assay on 786-0 renal, in the assay with HCC-2998 colon, in the assay on MDA-MB-435 and in the assay with SNB-75 CNS was greater than 100 µM in each case.

As to `CC1=CC(=C(c2ccc(N)c(C)c2)c2ccc(N)c(C)c2)C=CC1=N`, the TGI was found to be 17.8 µM in the assay with SF-268 CNS; 51.2 µM in the assay with RXF 393 renal; 71.8 µM in the assay with IGROV1 ovarian; 11.7 µM with SF-295 CNS; 21.1 µM with 786-0 renal; 30.4 µM in the assay on SK-OV-3 ovarian. In addition, the TGI in the assay with OVCAR-3 ovarian worked out at 16.7 µM; in the assay on HCC-2998 colon, 14.4 µM; with SNB-75 CNS, 8.91 µM.
